This is an account of results in patent US20250319073A1, “COMPOSITIONS AND METHODS FOR THE TREATMENT OF HUNTINGTON’S DISEASE AND HTT PROTEINOPATHIES” (priority 2022, published 2025).

One test concerns R6/2 mice. Put plainly: 18F-FDG PET brain glucose uptake in R6/2 mice. The class given is in vivo, mouse. As to the method:
Study Summary—A total of 46 male R6/2 mice and 15 male wild-type littermate control mice (WT) were used in the study. The mice were genotyped and the R6/2 mice were divided into different treatment groups based on their pre-treatment body weight. The treatment with Compound (Ia) (0.5 or 5 mg/kg; 10 ml/kg, intraperitoneally (i.p.), QD) or Vehicle (10 ml/kg, i.p., QD) was started at 4 weeks of age. Body weights were measured before the treatment onset and continued twice a week until the end of the study. Fine motor kinematic analysis and rotarod test were performed at 10 weeks of age and the open field activity and clasping behavior were measured at 12 weeks of age for all mice. At 8 and 12 weeks of age the glucose uptake was measured by ^18F-FDG PET and the striatal metabolites were measured using MR spectroscopy for 9-10 mice per group. At 13 weeks of age 9-10 mice per group were subjected to tissue sample collection, and the brain and blood samples were collected. The blood samples were used to prepare peripheral blood mononuclear cells (PBMCs) on which the flow cytometry/luminescence analysis was performed for following assays: mitochondrial reactive oxygen species (ROS) (MitoSox), and ATP levels (Cell TiterGlow).
^18F-FDG-PET Analysis—At 8 and 12 weeks of age, 9 mice per group were fasted overnight (water allowed ad libitum) to standardize the blood glucose level. […]

Test [1] concerns Peripheral Blood Mononuclear Cells (PBMC). Put plainly: CellTiter-Glo 2.0 ATP level assay in PBMCs of treated mice. The class given is in vivo, mouse. Conditions: R6/2 mice, 0.5 mg/kg / 5 mg/kg i.p. QD, PBMCs collected at 13 weeks of age. Here is the method: Euthanasia & Sample Collection—At 13 weeks of age, 9 mice per group were euthanized by deep anesthesia with sodium pentobarbital (180 mg/kg). The remaining mice were euthanized and any samples were not collected, except the tail and ear samples. A terminal blood sample (as much as possible) was collected by cardiac puncture into a syringe. The whole blood was placed in Li-Hep tube at RT and used immediately for preparation of PBMCs. The whole brain was collected and fresh frozen in liquid nitrogen and stored at −80° C. Blood was collected also from extra animals as staining controls for the flow cytometry assays (n=3 extra animals per day). […]
PBMC Extraction—Whole blood (approximately 400-500 μL) was stored at room temperature (RT) before the start of the PBMC isolations. […] Right before measurement 1 μL of propidium iodide was added and the cell number and viability was determined by MACSquant Analyzer 10 flow cytometer. […]
The cells were analyzed immediately after the staining using the MACSQuant Analyzer 10 (Miltenyi Biotec) and Cytation 3 (Cell titerglow). […]
ATP Levels: CellTiter-Glo 2.0® Assay—The CellTiter-Glo® 2.0 Assay provides a homogeneous method to determine the number of viable cells in culture by quantitating the amount of ATP present, which indicates the presence of metabolically active cells. […]
• 1. […] Place 50,000 cells/well white walled luminescence suitable plate in DPBS. • 3. […]

`Cc1cc(O)cc(C)c1C[C@H](NC(=O)[C@H](N)CCCNC(=N)N)C(=O)N[C@@H](CCCCN)c1nc(Cc2ccccc2)no1.Cl.Cl` [Compound (Ia), (R)-2-amino-N—((S)-1-(((S)-5-amino-1-(3-benzyl-1,2,4-oxadiazol-5-yl)pentyl)amino)-3-(4-hydroxy-2,6-dimethylphenyl)-1-oxopropan-2-yl)-5-guanidinopentanamide]: the “18F-FDG uptake (radioactivity) in olfactory bulb compared to vehicle treated R6/2 mice” value in the test with R6/2 mice (5 mg/kg i.p. QD, 12 weeks of age, p<0.05, Mixed-effects model (REML)) is “statistically significantly higher radioactivity”. Besides, the “18F-FDG uptake in various brain areas” value with R6/2 mice (i.p. QD, trend, not statistically significant except olfactory bulb) is “increased”. Moreover, the “ATP levels (Cell Titer Glow) in PBMCs, R6/2+Vehicle vs treated R6/2” value in test [1] is “no significant differences”.
